Measurements taken from US20230346705A1, “NANOPARTICLES FOR TREATING OR PREVENTING A CARDIOMYOPATHY AND ANTHRACYCLINE-CYTOTOXICITY, AND THEIR ADMINISTRATION AS AN AEROSOL” (INSTITUT NATIONAL DE LA SANTE ET DE LA RECHERCHE MEDICALE …, priority 2020, published 2023).

Assays:
[1] = tested on: H9C2 cells; assay: Lysosomal pH (Acridine Orange, Lysosensor) in H9C2; format: cell-based, Rat
Experimental: Acridine Orange (Sigma Aldrich), a weak base which accumulates in acidic organelles, was used to label the lysosomes. After treatments, cells were incubated with 5 μM AO for 10 min at 37° C. and washed twice with PBS. Red fluorescence (corresponding to acidic vesicles staining) was measured using a Varioskan Flash Multimode Microplate Reader with excitation/emission at 480/630 nm. Representative pictures were taken with an epifluorescence microscope (DM600 microscope, Leica).
Lysosomal acidification was measured in H9C2 and NRVMs loaded with 2 μM LysoSensor yellow/blue DND-160 (Invitrogen) for 15 min at 37° C. The LysoSensor dye is a ratiometric probe that produces yellow fluorescence in acidic environments, but changes to blue fluorescence in neutral environments. pH calibration was performed following the protocol established by Diwu et al. (Chem Biol. (1999); 6(7):411-418). Briefly, cells were incubated in MES buffer (5 mMNaCl, 115 mMKCl, 1.3 mM MgSO 4, 25 mM MES) supplemented with 10 μM nigericin and 10 μM monensin, for 10 min, with pH adjusted to a range from 3 to 7. The samples were read in a Varioskan Flash Multimode Microplate Reader with excitation at 360 nm. The ratio of emission 440/540 nm was then calculated for each sample.

[2] = tested on: H9C2 cells; assay: Autophagosomes/autolysosomes visualization (GFP-LC3, RFP-GFP-LC3) in H9C2; format: cell-based, Rat
Experimental: Autophagosomes were visualized in GFP-LC3-transduced cells. Autophagic flux was evaluated in RFP-GFP-LC3-transduced cells. Representative images were taken with an epifluorescence microscope (DM600 microscope, Leica) and quantification of yellow puncta (autophagosomes) and red puncta (autolysosomes) was performed using Image J software.

[3] = tested on: LC3-II and p62; assay: Western blot of autophagy markers LC3-II and p62 in H9C2; format: cell-based, Rat; conditions: H9C2, Baf A1 treatment alone
Experimental: H9C2 or NRVMs extracts were prepared by lysing in RIPA buffer (50 mM Tris pH 7.2, 500 mM NaCl, 1% Triton X-100, 1 mM EDTA, 100 mM sodium fluoride, 5 mM sodium metavanadate, 10 mM sodium pyrophosphate) and equal protein amounts were subjected to sodium dodecyl sulfate-polyacrylamide gel electrophoresis (SDS-PAGE) in 10-15% gels depending upon protein molecular weight. After electrophoresis, proteins were transferred to nitrocellulose membranes and incubated with the following antibodies: anti-GAPDH, anti-LC3B, anti-cleaved caspase 3, anti-p-p53 from Cell Signaling Technology, anti-p62 from Abnova, anti-Lamp1, anti-cathepsin D from Abcam. Proteins were detected by chemiluminescence with a Bio-Rad ChemiDoc XRS camera. Relative densities were quantified using the ImageLab 5.2.1 software (Bio-Rad). All data were normalized by internal controls.

[4] = tested on: H9C2 cells; assay: Cellular ROS (DCFDA) in H9C2; format: cell-based, Rat; conditions: H9C2, 10 h after doxorubicin 1 μM alone
Experimental: (§1) Cellular ROS were measured using the fluorescent probe DCFDA assay at a concentration of 5 μM (ThermoFisher Scientific). Fluorescence was quantified using a fluorimeter TECAN infinite proF200 with excitation/emission at 500/530 nm. Mitochondrial ROS were measured by mitoSOX probe (Invitrogen, Molecular Probes). Briefly, the cells were loaded with mitoSOX probe at a final concentration of 5 μM and incubated for 30 min after the indicated treatments. Cells were resuspended in HBSS before reading in Tecan plate reader.

[5] = tested on: neonatal rat ventricular myocytes (NRVMs); assay: Cell death / toxicity (LDH release) in NRVMs; format: cell-based; conditions: doxorubicin 1 μM alone
Experimental: (§2) Rat H9C2 cardiomyoblasts (American Type Culture Collection, Rockville, U.S.A.) were grown in DMEM media containing 10% heat-inactivated FBS under 5% CO2 and 95% air at 37° C. H9C2 serve as an animal-free alternative sharing many physiological properties of primary cardiac cells. For neonatal rat ventricular myocytes (NRVMs), rats of 1-2 days old were euthanized and hearts were excised before the atria were removed. Primary culture of NRVMs was subsequently performed as previously described (Manzella et al. 2018; Aging Cell 17(5):e12811). NRVMs were grown in Ham-F12 medium containing 10% heat-inactivated FBS and 10% heat-inactivated HS under 5% CO2 and 95% air at 37° C. Plasmid transfections with GFP-LC3, GFP-RFP-LC3 or RFP-LAMP1 constructs (Addgene) were performed using Lipofectamine 2000 reagent (Life Technologies) in Opti-MEM™ transfection medium (Gibco). […]
For quantitative assessment of cardiomyocyte necrosis, LDH release in culture medium was measured using the LDH cytotoxicity assay kit according to the manufacturer's instructions (Biovision). Apoptosis was measured in NRVMs by caspase-3 activation using a commercial kit (Biotium) according to the manufacturer's instructions.

[6] = tested on: neonatal rat ventricular myocytes (NRVMs); assay: Lysosomal pH (Acridine Orange, Lysosensor) in NRVMs; format: cell-based; conditions: doxorubicin 250 nM alone
Experimental: as §2, with “C.” for “C. Plasmid transfections with GFP-LC3, GFP-RFP-LC3 or RFP-LAMP1 constructs (Addgene) were performed using Lipofectamine 2000 reagent (Life Technologies) in Opti-MEM™ transfection medium (Gibco).”
Acridine Orange (Sigma Aldrich), a weak base which accumulates in acidic organelles, was used to label the lysosomes. […] Red fluorescence (corresponding to acidic vesicles staining) was measured using a Varioskan Flash Multimode Microplate Reader with excitation/emission at 480/630 nm. […]
Lysosomal acidification was measured in H9C2 and NRVMs loaded with 2 μM LysoSensor yellow/blue DND-160 (Invitrogen) for 15 min at 37° C. The LysoSensor dye is a ratiometric probe that produces yellow fluorescence in acidic environments, but changes to blue fluorescence in neutral environments. pH calibration was performed following the protocol established by Diwu et al. (Chem Biol. (1999); 6(7):411-418). […]

[7] = tested on: neonatal rat ventricular myocytes (NRVMs); assay: Mitochondrial ROS (mitoSOX) in NRVMs; format: cell-based; conditions: doxorubicin 250 nM alone
Experimental: as §1

[8] = tested on: H9C2 cells; assay: Mitochondrial membrane potential (JC-1 probe) in H9C2; format: cell-based, Rat; conditions: H9C2, 10 h after doxorubicin 1 μM alone
Experimental: The mitochondrial membrane potential was evaluated using JC-1 probe (ThermoFisher Scientific). Before the end of treatments, cells were loaded with JC-1 probe at a concentration of 5 μg/ml for 10 min at 37° C. Then, medium was replaced by HBSS and the fluorescence was recorded at 535 nm (excitation wavelength, emission at 590 nm) to measure the formation of red aggregates and at 485 (excitation wavelength, emission at 530 nm) to measure the presence of green monomers, using a fluorimeter TECAN infinite pro F200. Representative images were taken with an epifluorescence microscope (DM600 microscope, Leica).

[9] = H9C2, Bafilomycin A1 100 nM alone

CO/C1=C\C(C)=C\[C@@H](C)[C@@H](O)[C@@H](C)C/C(C)=C/C=C/[C@H](OC)[C@@H]([C@@H](C)[C@@H](O)[C@H](C)[C@@]2(O)C[C@@H](O)[C@H](C)[C@@H](C(C)C)O2)OC1=O [Baf A1, Bafilomycin A1]
Acridine Orange red puncta (lysosomal acidification) [1, 9]: loss of Acridine Orange (AO) red puncta | lysosomal pH (Lysosensor) [1, 9]: rise in lysosomal pH | autophagic flux, tandem RFP-GFP-LC3 reporter ([2]; H9C2, Baf A1 alone): accumulation of red+green autophagosomes (AP) and to the reduction of red-only autolysosomes | autophagosomes in GFP-LC3-transduced cells ([2]; H9C2, Baf A1 treatment alone): accumulation of autophagosomes (AP) | LC3-II and p62 protein levels [3]: increased LC3-II and p62 protein levels

COc1cccc2c1C(=O)c1c(O)c3c(c(O)c1C2=O)C[C@@](O)(C(=O)CO)C[C@@H]3O[C@H]1C[C@H](N)[C@H](O)[C@H](C)O1 [doxorubicin]
oxidative stress (ROS, DCFDA) [4]: accumulation of oxidative stress | cell death at the dose used in prior experiments [5]: rapid cell death in only 24 hours | AO red fluorescence ([1]; H9C2, doxorubicin 1 μM alone): significantly decreased AO red fluorescence | lysosomal pH (lysosensor blue/yellow ratio) ([1]; H9C2, doxorubicin 1 μM alone): increased lysosomal pH | duration of A.O. red fluorescence alteration [6]: maintained until 40 h | A.O. red fluorescence ([6]; 24 h): decrease in A.O. red fluorescence | autolysosomes (AL), GFP-RFP-LC3 reporter ([2]; H9C2, doxorubicin 1 μM alone): accumulation of autolysosomes (AL) | number of autophagosomes (AP), GFP-RFP-LC3 reporter ([2]; H9C2, doxorubicin 1 μM alone): remained unchanged | mitochondrial ROS (mitoSOX) [7]: mitochondrial ROS increase | mitochondrial membrane potential (JC-1) [8]: drop in mitochondrial membrane potential
